Data published in ChEMBL document CHEMBL5390276, “Discovery of Unusual Sesterterpenoids from Colquhounia coccinea var. mollis and Their Metabolic Implications” (2023).

Assays:
Format in all cases: functional
[1] = system: RAW264.7; assay: Immunosuppressive activity in LPS-treated mouse RAW264.7 cells assessed as inhibition of MCP-1 level at 40 uM incubated for 24 hrs by ELISA analysis relative to control
[2] = system: RAW264.7; assay: Immunosuppressive activity in LPS-treated mouse RAW264.7 cells assessed as inhibition of TNF-alpha level at 40 uM incubated for 24 hrs by ELISA analysis relative to control
[3] = system: Jurkat; assay: Immunosuppressive activity in PMA and PHA activated human Jurkat cells assessed as inhibition of IL-2 level at 40 uM incubated for 48 hrs by ELISA analysis relative to control
[4] = system: RAW264.7; assay: Immunosuppressive activity in LPS-treated mouse RAW264.7 cells assessed as inhibition of IL-6 level at 40 uM incubated for 24 hrs by ELISA analysis relative to control
[5] = Immunosuppressive activity in anti-CD3/CD28 stimulated C57BL/6 mouse T cell line assessed as inhibition of IFN-gamma level at 20 uM incubated for 48 hrs by ELISA analysis relative to control; settings: C57BL/6, T-cell
[6] = system: Jurkat; assay: Immunosuppressive activity in PMA and PHA activated human Jurkat cells assessed as inhibition of IL-2 level at 20 uM incubated for 48 hrs by ELISA analysis relative to control
[7] = system: RAW264.7; assay: Immunosuppressive activity in LPS-treated mouse RAW264.7 cells assessed as inhibition of IL-6 level at 20 uM incubated for 24 hrs by ELISA analysis relative to control
[8] = system: RAW264.7; assay: Immunosuppressive activity in LPS-treated mouse RAW264.7 cells assessed as inhibition of TNF-alpha level at 1 uM incubated for 24 hrs by ELISA analysis relative to control
[9] = system: RAW264.7; assay: Immunosuppressive activity in LPS-treated mouse RAW264.7 cells assessed as inhibition of MCP-1 level at 1 uM incubated for 24 hrs by ELISA analysis relative to control
[10] = system: Jurkat; assay: Immunosuppressive activity in PMA and PHA activated human Jurkat cells assessed as inhibition of IL-2 level at 0.1 uM incubated for 48 hrs by ELISA analysis relative to control
[11] = Immunosuppressive activity in anti-CD3/CD28 stimulated C57BL/6 mouse T cell line assessed as inhibition of IFN-gamma level at 0.1 uM incubated for 48 hrs by ELISA analysis relative to control; settings: C57BL/6, T-cell

Compound	inhibition at 40 µM [1]	inhibition at 40 µM [2]	inhibition at 40 µM [3]	inhibition at 40 µM [4]	inhibition at 20 µM [5]	inhibition at 20 µM [7]	further results
CC(=O)O[C@H]1C[C@H](C)[C@H]2C(=O)C3=C([C@H](C)[C@H]21)[C@@]1(CC[C@H](C)O1)O[C@]3(C)CC[C@@H]1OC(=O)C=C1C	32.2%	52.5%	< 10%	10.4%			
CC(=O)O[C@H]1C[C@H](C)[C@H]2C(=O)C3=C(/C(=C/C(C)C)O[C@]3(C)CCc3occc3C)[C@H](C)[C@H]21	31.9%	24.3%	21.1%	< 10%			
Cc1ccoc1CC[C@]1(C)O[C@@]2(CC(C)CCl)O[C@H]3C[C@H](C)[C@H]4C(=O)[C@@H]1[C@]2(O)[C@H](C)[C@H]43 (some centres not stated)					67.4%	38.6%	inhibition at 20 µM [6]: 33.1%
Cc1ccoc1CC[C@]1(C)O[C@@]2(CCC(C)Cl)O[C@H]3C[C@H](C)[C@H]4C(=O)[C@@H]1[C@]2(O)[C@H](C)[C@H]43 (some centres not stated)					61.2%	45.6%	
C/C=C/C[C@@H](C)[C@@H](O)[C@H]1C(=O)N[C@@H](CC)C(=O)N(C)CC(=O)N(C)[C@@H](CC(C)C)C(=O)N[C@@H](C(C)C)C(=O)N(C)[C@@H](CC(C)C)C(=O)N[C@@H](C)C(=O)N[C@H](C)C(=O)N(C)[C@@H](CC(C)C)C(=O)N(C)[C@@H](CC(C)C)C(=O)N(C)[C@@H](C(C)C)C(=O)N1C [CYCLOSPORINE]							inhibition at 1 µM [8]: 70.8%; inhibition at 1 µM [9]: 66%
C[C@@H]1C[C@H]2[C@@H]3CCC4=CC(=O)C=C[C@]4(C)[C@@]3(F)[C@@H](O)C[C@]2(C)[C@@]1(O)C(=O)CO [DEXAMETHASONE]							inhibition at 0.1 µM [10]: 98.9%; inhibition at 0.1 µM [11]: 98.3%
